Measurements from the supplement of paper PMC10307832.

Legend:
Test in all cases: relative viability (nuclei count vs DMSO), 5 days (fraction); higher = more cells survive
Ponatinib + Bortezomib = compound: Cc1ccc(C(=O)Nc2ccc(CN3CCN(C)CC3)c(C(F)(F)F)c2)cc1C#Cc1cnc2cccnn12 [Ponatinib] + CC(C)C[C@H](NC(=O)[C@H](Cc1ccccc1)NC(=O)c1cnccn1)B(O)O [Bortezomib] (partner 0.002 µM)
Summary of the method: (§1)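 Nuclei were stained with Hoechst during a one-step fixation (final 0.05% Triton X-100, 1% formaldehyde, 1 ug/ml Hoechst) carried out 5 days after dosing, then counted on 4× images. The cells, lung cancer lines in 1536-well plates, had been dosed by pin tool the day after seeding with one drug alone or a fixed anchor-drug dose plus five library-drug doses (not always all listed) in √10 steps. Relative viability is the nuclei count in treated wells divided by that in vehicle wells, and each value is the median of duplicate plates.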

Pazopanib + Phenformin = compound: Cc1ccc(Nc2nccc(N(C)c3ccc4c(C)n(C)nc4c3)n2)cc1S(N)(=O)=O [Pazopanib] + N=C(N)NC(=N)NCCc1ccccc1 [Phenformin] (partner 250 µM)
Summary of the method: as §1

Ponatinib + Vorinostat = compound: Cc1ccc(C(=O)Nc2ccc(CN3CCN(C)CC3)c(C(F)(F)F)c2)cc1C#Cc1cnc2cccnn12 [Ponatinib] + O=C(CCCCCCC(=O)Nc1ccccc1)NO [Vorinostat] (partner 1 µM)
Summary of the method: as §1

Pazopanib + AZD7762 = compound: Cc1ccc(Nc2nccc(N(C)c3ccc4c(C)n(C)nc4c3)n2)cc1S(N)(=O)=O [Pazopanib] + NC(=O)Nc1cc(-c2cccc(F)c2)sc1C(=O)N[C@H]1CCCNC1 [AZD7762] (partner 0.2 µM)
Summary of the method: as §1

Cell Line	relative viability (Ponatinib + Bortezomib; first compound 0.002 µM)	relative viability (Ponatinib + Bortezomib; first compound 0.006325 µM)	relative viability (Ponatinib + Bortezomib; first compound 0.06325 µM)	relative viability (Ponatinib + Bortezomib; first compound 0.2 µM)	relative viability (Pazopanib + Phenformin; first compound 0.01 µM)	relative viability (Pazopanib + Phenformin; first compound 0.03162 µM)	relative viability (Pazopanib + Phenformin; first compound 0.1 µM)	relative viability (Pazopanib + Phenformin; first compound 0.3162 µM)	relative viability (Pazopanib + Phenformin; first compound 1 µM)	relative viability (Ponatinib + Vorinostat; first compound 0.002 µM)	relative viability (Ponatinib + Vorinostat; first compound 0.006325 µM)	relative viability (Ponatinib + Vorinostat; first compound 0.06325 µM)	relative viability (Ponatinib + Vorinostat; first compound 0.2 µM)	relative viability (Pazopanib + AZD7762; first compound 0.01 µM)	relative viability (Pazopanib + AZD7762; first compound 0.03162 µM)	relative viability (Pazopanib + AZD7762; first compound 0.1 µM)	relative viability (Pazopanib + AZD7762; first compound 0.3162 µM)	relative viability (Pazopanib + AZD7762; first compound 1 µM)
EKVX	1.01	1.11	1.13	1.02	0.227	0.224	0.207	0.225	0.234	0.762	0.822	0.927	0.826	0.705	0.599	0.755	0.654	0.636
NCI-H2087	0.57	0.566	0.74	0.688	0.373	0.464	0.445	0.483	0.513	0.635	0.549	0.366	0.662	1.36	1.23	1.47	1.18	1.12
NCI-H1437	0.572	0.681	0.608	0.66	0.355	0.312	0.34	0.303	0.338	0.859	0.858	0.938	0.901	1.05	1.13	1.19	1.03	1.03
ABC-1	0.347	0.286	0.299	0.283	0.23	0.242	–	0.196	0.269	0.786	1.06	0.988	0.994	0.797	0.757	–	–	0.804
PC-14	0.846	0.944	1.02	0.875	0.747	0.692	0.607	0.823	0.677	0.68	0.668	0.9	0.647	0.422	0.328	0.268	0.372	0.426
A-427	0.889	0.976	1.02	0.905	0.309	0.4	0.286	0.332	0.288	0.829	0.904	1.03	0.881	0.864	0.786	0.825	0.784	0.716
LCLC-97TM1	0.309	0.818	0.74	0.483	0.242	0.419	0.389	0.43	0.452	0.806	0.748	0.665	0.535	–	0.241	0.248	0.303	0.188
LCLC-103H	1.05	1.12	1.23	1.25	0.247	0.338	0.344	0.344	0.342	0.701	0.821	0.848	0.765	0.576	0.805	0.897	0.792	0.822
RERF-LC-KJ	1.06	0.988	1.2	1.15	0.445	0.419	0.43	0.417	0.417	0.601	0.767	0.881	0.635	0.796	0.915	0.916	1.02	0.992
BEN	0.643	0.843	0.85	0.672	–	0.281	0.288	0.266	0.238	0.562	0.631	0.666	0.546	0.592	0.75	0.607	0.775	0.786
NCI-H1666	0.736	0.832	0.985	1.11	0.576	0.581	0.575	0.613	0.67	0.998	1.01	1.08	0.89	0.871	0.828	0.788	0.823	0.848
LC-2-ad	0.964	1.01	0.911	0.875	0.618	0.649	0.584	0.689	0.685	0.653	0.667	0.626	0.591	0.834	0.835	0.906	0.92	0.85
ChaGo-K-1	0.786	1.01	1.14	0.968	0.474	0.428	0.535	0.547	0.495	0.699	0.732	0.664	0.648	0.859	0.859	0.971	0.82	0.865
NCI-H1975	0.353	0.296	0.338	0.36	0.399	0.437	0.445	0.471	0.502	0.669	0.71	0.688	0.579	0.612	0.667	0.637	0.76	0.692
NCI-H1993	1.11	1.15	1.4	1.23	–	0.457	0.502	0.591	0.496	0.783	1.19	0.962	0.734	–	0.789	0.734	0.883	0.645
NCI-H23	0.942	1.04	1.15	0.853	0.565	0.87	0.905	0.798	0.783	0.504	0.588	0.607	0.634	0.223	0.257	0.221	0.374	0.271
HCC-366	1.04	1.13	1.14	0.982	0.566	0.642	0.547	0.608	0.638	0.329	0.318	0.416	0.317	0.321	0.202	0.314	0.276	0.238
EMC-BAC-2	0.967	1.02	1.06	1.04	–	0.513	0.498	0.536	0.537	0.288	0.337	0.427	0.368	–	1.14	1.09	1.14	1.2
NCI-H3122	1.02	1.02	1.02	1	0.417	0.388	0.345	0.36	0.376	0.936	1.07	0.994	1.05	0.962	0.952	1.1	0.95	0.987
EPLC-272H	0.76	0.894	0.856	0.88	–	0.311	0.308	0.347	0.392	0.461	0.525	0.579	0.545	–	0.227	0.238	0.132	0.217
NCI-H1915	0.849	0.975	0.923	0.871	0.402	0.364	0.367	0.36	0.343	0.457	0.49	0.469	0.491	0.716	0.658	0.667	0.68	0.616
NCI-H647	0.825	0.964	1.15	0.969	0.483	0.643	0.541	0.663	0.615	0.381	0.588	0.686	0.513	0.373	0.635	0.469	0.428	0.546
NCI-H441	0.592	0.363	0.402	0.452	0.741	0.911	0.811	0.986	1.01	0.647	0.675	0.822	0.757	1.31	1.14	1.08	1.09	1.12
NCI-H650	0.536	0.695	0.575	0.703	0.42	0.473	0.438	0.466	0.444	0.3	0.441	0.444	0.447	0.948	1.07	1.09	0.942	0.904
NCI-H2085	0.98	1.15	1.25	1.03	0.624	0.835	0.683	0.694	0.833	0.768	0.877	1.02	0.825	0.98	0.988	0.928	0.952	1.06
NCI-H838	0.903	1.05	0.698	0.817	0.548	0.648	0.587	0.647	0.753	0.755	0.764	0.773	0.664	1.04	0.911	1.04	0.909	0.946
NCI-H460	1.01	0.98	1.06	0.974	0.578	0.546	0.525	0.548	0.562	0.665	0.657	0.74	0.664	0.766	0.619	0.551	0.637	0.597
LOU-NH91	0.399	0.543	0.557	0.568	0.635	0.731	0.605	0.751	0.731	0.889	0.988	1.01	0.873	0.653	0.758	0.78	0.836	0.815
NCI-H322M	1.19	1.27	1.44	1.21	0.844	0.866	0.779	0.854	0.791	0.882	0.823	0.833	0.741	0.559	0.539	0.617	0.617	0.669
NCI-H727	0.625	0.856	0.851	0.824	0.455	0.522	0.57	0.584	0.682	1.08	1.09	1.21	1.09	0.618	–	0.609	0.663	0.562
